Reference: patent publication US20090012488A1, “Super-Absorber Having Improved Smell-Inhibition” (BASF SE, priority 2006, published 2009)

Molecular target: T1, urease (from jack beans) (Canavalia ensiformis, UniProt P07374)
T1 construct: solid urease (from jack beans); lyophilized 5 U/mg for urea assay in serum; purchased Merck article No. 4194753; host or cells: jack beans (natural source)
Assay type: biochemical
Details: comparison of inventive with comparative examples, table 1
Description: To evaluate the odor-inhibiting effect of the compositions of the present invention, the inhibition of the activity of urease in the formation of ammonia from urea is determined. The determination is carried out at room temperature. 2 g of the substance to be tested (superabsorbent, composition according to the present invention) are weighed into a 100 ml Erlenmeyer flask. 30 mg of solid urease (from jack beans; lyophilized 5 U/mg for urea assay in serum; Merck, article No. 4194753) is weighed into a 100 ml glass beaker. 50 ml of 0.9% sodium chloride solution in urea (8.56 g/L) are added to the urease. The entire contents of the glass beaker are poured swiftly onto the sample in the Erlenmeyer flask, a diffusion tubelet (Dräger Röhrchen, ammonia 20/a-D, 20-1500 ppm*h, order No. 8101301) is as intended broken open, inserted into a rubber stopper which fits the Erlenmeyer flask and the Erlenmeyer flask is sealed with the stopper such that the open end of the diffusion tubelet points inward. […] The measurement is in each case carried out as a duplicate determination, and the result reported is the average between the two readings which has been rounded to the nearest whole number.

T1 sequence (P07374 whole entry, looked up): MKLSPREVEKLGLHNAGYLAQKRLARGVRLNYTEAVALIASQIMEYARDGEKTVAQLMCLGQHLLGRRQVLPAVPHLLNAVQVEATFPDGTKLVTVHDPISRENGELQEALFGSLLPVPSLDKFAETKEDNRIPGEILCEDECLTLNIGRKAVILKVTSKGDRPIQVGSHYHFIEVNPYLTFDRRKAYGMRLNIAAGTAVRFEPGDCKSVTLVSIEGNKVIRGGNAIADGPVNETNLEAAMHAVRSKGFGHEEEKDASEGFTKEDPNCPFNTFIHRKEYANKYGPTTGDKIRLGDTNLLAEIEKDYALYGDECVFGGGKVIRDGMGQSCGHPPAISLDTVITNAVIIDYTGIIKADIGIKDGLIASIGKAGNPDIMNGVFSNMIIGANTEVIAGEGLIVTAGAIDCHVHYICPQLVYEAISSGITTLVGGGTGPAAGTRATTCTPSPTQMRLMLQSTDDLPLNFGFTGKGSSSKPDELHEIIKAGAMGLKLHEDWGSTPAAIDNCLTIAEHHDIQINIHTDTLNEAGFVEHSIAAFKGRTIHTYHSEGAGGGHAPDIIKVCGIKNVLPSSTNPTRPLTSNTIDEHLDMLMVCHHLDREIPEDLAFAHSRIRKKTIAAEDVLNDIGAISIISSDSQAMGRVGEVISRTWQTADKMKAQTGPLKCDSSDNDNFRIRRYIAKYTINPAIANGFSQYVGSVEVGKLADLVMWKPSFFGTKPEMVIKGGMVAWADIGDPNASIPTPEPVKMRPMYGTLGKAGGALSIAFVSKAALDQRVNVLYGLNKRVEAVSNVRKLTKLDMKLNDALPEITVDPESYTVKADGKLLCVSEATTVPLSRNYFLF

O=CC(=O)O [glyoxylic acid]
odor-inhibiting effect (in words): demonstrates an odor-inhibiting effect
